Six compounds from US20250129074A1, “CHIMERIC COMPOUND FOR TARGETED DEGRADATION OF ANDROGEN RECEPTOR PROTEIN, PREPARATION METHOD THEREFOR, AND MEDICAL USE THEREOF” (Jiangsu Hengrui Pharmaceuticals Co., Ltd., priority 2021, published 2025) can be followed below.

One series addresses T1, androgen receptor (AR) (Homo sapiens, UniProt P10275, T878A).
T1 construct: host or cells: LNCaP human prostate cancer cells
T1 sequence (P10275 1-920 T878A): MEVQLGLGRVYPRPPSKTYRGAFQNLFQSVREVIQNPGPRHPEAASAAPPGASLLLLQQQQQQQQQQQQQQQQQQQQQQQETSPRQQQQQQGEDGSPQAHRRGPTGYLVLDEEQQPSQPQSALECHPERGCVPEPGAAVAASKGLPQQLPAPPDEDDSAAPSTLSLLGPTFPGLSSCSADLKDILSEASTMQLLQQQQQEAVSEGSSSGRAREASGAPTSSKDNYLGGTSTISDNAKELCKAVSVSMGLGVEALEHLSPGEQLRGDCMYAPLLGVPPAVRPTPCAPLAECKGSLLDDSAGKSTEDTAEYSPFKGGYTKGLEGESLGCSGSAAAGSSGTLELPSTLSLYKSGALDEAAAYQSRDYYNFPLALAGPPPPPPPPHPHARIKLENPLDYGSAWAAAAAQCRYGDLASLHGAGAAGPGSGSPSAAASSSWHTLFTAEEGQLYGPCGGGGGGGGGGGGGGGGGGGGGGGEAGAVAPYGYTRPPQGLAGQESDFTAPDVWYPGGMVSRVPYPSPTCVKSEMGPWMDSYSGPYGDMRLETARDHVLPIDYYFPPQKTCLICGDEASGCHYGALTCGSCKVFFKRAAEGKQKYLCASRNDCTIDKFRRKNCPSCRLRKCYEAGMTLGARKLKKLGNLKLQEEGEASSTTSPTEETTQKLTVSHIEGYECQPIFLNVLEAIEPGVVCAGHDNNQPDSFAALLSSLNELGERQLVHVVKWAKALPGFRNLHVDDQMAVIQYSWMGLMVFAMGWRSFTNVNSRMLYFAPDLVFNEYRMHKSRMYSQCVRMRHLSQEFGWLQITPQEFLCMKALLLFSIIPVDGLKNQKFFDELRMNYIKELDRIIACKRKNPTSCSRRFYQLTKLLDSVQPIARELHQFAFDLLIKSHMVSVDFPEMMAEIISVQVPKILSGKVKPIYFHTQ
Put plainly: Degradation activity on androgen receptor in LNCaP cells (AR ELISA). The class given is cell-based. Conditions: 0.1 nM R1881, 24 hours; for DC50: read-out: LNCaP DC50; for Dmax: read-out: Max (maximum AR degradation rate). The method in brief: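 LNCaP cells were treated with compound, with a 0.5% DMSO blank control, for 24 h at 37 °C, 5% CO2. Cells were then lysed and the lysate clarified. AR protein level was read by ELISA.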
In general terms: An ELISA detects its analyte on a solid surface through an enzyme-linked reagent.

Series [1] is described as follows: Pharmacokinetic evaluation in SD rats. The conditions noted are these: both sexes, rat, in vivo, po, i.g., 2.0 mg/kg; for Vd/F: read-out: Apparent distribution volume Vz/F; for AUC(0-t): read-out: Area under curve AUC0-t; for CL/F: read-out: Clearance rate CL/F; for half-life: read-out: Half-life T½ (converted); for Cmax: read-out: Plasma concentration Cmax. Here is the method: SD rats were used as test animals.
32 SD rats, provided by Vital River Laboratory Animal Co., Ltd., with an equal number of males and females, were evenly divided into 8 groups. The animals were fasted overnight and then intragastrically dosed.
The dose administered was 2.0 mg/kg, and the volume was 10.0 mL/kg.
The procedure starting from the blood collection to the centrifugation was performed under ice-bath conditions. Access to food was given 2 hours after administration.

The next series relates to LNCaP cells. The experiment in a line: Inhibition of LNCaP proliferation (CellTiter-Glo). Format: cell-based. The conditions noted are these: Homo sapiens, 144 h, 0.1 nM R1881, six days; for Emax: read-out: Max (maximum proliferation inhibition rate). The method, then: The plate was incubated in a 37° C., 5% CO2 cell incubator for three days. […] A blank control cell well containing 0.5% DMSO and a cell-free vehicle control well were set up. The plate was incubated in a 37° C., 5% CO2 cell incubator for six days.
(In ATP-based viability assays light output follows the ATP content of the culture.)

The subject of series [2] is LNCap-FGC xenograft tumors. The experiment in a line: Pharmacodynamic testing: LNCap-FGC subcutaneous xenograft in castrated CB17-SCID mice. Format: in vivo. Conditions: i.g.; for Mean tumor volume D 21 / Number of remaining animals/group / TGI D 21: qd/21 d. An excerpt: To evaluate the inhibition of the growth of castration-resistant prostate cancer LNCap-FGC subcutaneous xenograft tumors in male CB17-SCID mice by compounds of the present disclosure.
Test animals: CB17-SCID male mice, purchased from Beijing Vital River Laboratory Animal Technology Co., Ltd. (certificate No. SCXK(Beijing)2016-0006; animal certification No. 110011220107542683), weighing about 20.54-26.72 g on purchase. Housing conditions: 5 animals/cage, a 12/12-hour light/dark cycle, a constant temperature of 23±1° C. with humidity at 50 to 60%, ad libitum access to food and water.
0.2 mL (10×10^6 cells+Matrigel) of LNCaP FGC cells (Matrigel was added, in a 1:1 ratio by volume) in the logarithmic growth phase was subcutaneously inoculated into the right upper limb of each mouse. When the mean tumor volume reached 77 mm^3, male mice with stable tumor growth were selected and subjected to orchiectomy followed by three days of analgesic care. When the mean tumor volume reached 172 mm^3, grouping and administration were started. The day of grouping was defined as DO, and intragastric administration was started and performed once a day for 21 days. The 21th day after administration was defined as D21 (Table 7). For tumor-bearing mice, the tumor volume was measured with a vernier caliper and the body weight was measured with a balance twice a week, and data were recorded.
All data were plotted and statistically analyzed using Excel and GraphPad Prism 8 software.
The calculation formula for tumor volume (V) was: V=½×a×b^2, where a and b represent length and width, respectively.
Relative tumor proliferation rate T/C(%)=(T-T0)/(C-C0)×100 (%), where T and C represent the tumor volumes of a treatment group and the control group at the end of the experiment; T0 and C0 represent the tumor volumes at the beginning of the experiment.

By DC50 is commonly meant the concentration at which degradation of the target reaches its halfway point. As usually defined, the half-life is the time in which the quantity being followed falls by half. The term IC50 denotes the concentration needed to halve the response being measured. For the compound `C[C@H]1CC2(CCN(c3ccc(C(=O)N4CCC(CN5CCN(c6cccc(NC7CCC(=O)NC7=O)c6)CC5)CC4)cc3)CC2)CN1c1ccc(C#N)c(Cl)c1` (stereo partly drawn) [Example 11, 2-Chloro-4-((3S)-8-(4-(4-((4-(3-((2,6-dioxopiperidin-3-yl)amino)phenyl)piperazin-1-yl)methyl)piperidine-1-carbonyl)phenyl)-3-methyl-2,8-diazaspiro[4.5]decan-2-yl)benzonitrile], at androgen receptor (AR), the DC50 stood at 7.3 nM and the Dmax was 98%. In series [1], the Vd/F is 34.8 L/kg, the AUC(0-t) worked out at 644 ng·h/mL, the CL/F came out at 60.2 mL/min/kg and the half-life is 6.75 h. Also, the Cmax in series [1] was 69.4 ng/mL. In the series on LNCaP cells, half-maximal inhibition (IC50) was put at 82 nM and the Emax is 68%.

Regarding `C[C@H]1CC2(CCN(c3ccc(C(=O)N4CCC(CN5CCN(c6cccc(N[C@H]7CCC(=O)NC7=O)c6)CC5)CC4)cc3F)CC2)CN1c1ccc(C#N)c(Cl)c1` [Example 15-1, 2-Chloro-4-((S)-8-(4-(4-((4-(3-(((S)-2,6-dioxopiperidin-3-yl)amino)phenyl)piperazin-1-yl)methyl)piperidine-1-carbonyl)-2-fluorophenyl)-3-methyl-2,8-diazaspiro[4.5]decan-2-yl)benzonitrile], the “effect on the body weight of the mice” value in series [2] (1.5, 5 and 15 mpk, once daily for 21 days) is listed as “little effect”. Moreover, the “Mean tumor volume D 21” value turned out to be 255 mm^3 in series [2] (1.5 mpk), 188 mm^3 in series [2] (5 mpk) and 117 mm^3 in series [2] (15 mpk). The “Number of remaining animals/group” value in series [2] (1.5 mpk), in series [2] (5 mpk) and in series [2] (15 mpk) was 8/8 throughout. Moreover, the “TGI D 21” value is given as 94% in series [2] (1.5 mpk), 99% in series [2] (5 mpk) and 104% in series [2] (15 mpk).

For the compound `C[C@H]1CC2(CCN(c3ccc(C(=O)N4CCC(CN5CCN(c6cccc(NC7CCC(=O)NC7=O)c6)CC5)CC4)nc3)CC2)CN1c1ccc(C#N)c(Cl)c1` (stereo partly drawn) [Example 12, 2-Chloro-4-((3S)-8-(6-(4-((4-(3-((2,6-dioxopiperidin-3-yl)amino)phenyl)piperazin-1-yl)methyl)piperidine-1-carbonyl)pyridin-3-yl)-3-methyl-2,8-diazaspiro[4.5]decan-2-yl)benzonitrile], on androgen receptor (AR), the half-maximal degradation concentration (DC50) was found to be 1.3 nM and the Dmax is 97%. For the same compound, in series [1], the Vd/F is 63.1 L/kg, the AUC(0-t) worked out at 304 ng·h/mL, the CL/F worked out at 139 mL/min/kg and the half-life is 5.19 h. Further, the Cmax in series [1] was 37.4 ng/mL. For the same compound, in the series with LNCaP cells, the midpoint of inhibition, the IC50, lay at 48 nM and the Emax amounted to 73%.

For the compound `N#Cc1ccc(O[C@H]2CC[C@H](NC(=O)c3ccc(N4CCC(CN5CCN(c6cc7c(cc6F)C(=O)N(C6CCC(=O)NC6=O)C7=O)CC5)CC4)nn3)CC2)cc1Cl` (stereo partly shown) [ARV-110, reference compound], in series [2] (1 mpk), the “Mean tumor volume D 21” value was determined as 789 mm^3, the “Number of remaining animals/group” value is recorded as 8/8 and the “TGI D 21” value amounted to 57%. Further, in series [2] (10 mpk), the “Mean tumor volume D 21” value came to 293 mm^3, the “Number of remaining animals/group” value is 8/8 and the “TGI D 21” value turned out to be 92%.

In the case of `C[C@H]1CC2(CCN(c3ccc(C(=O)N4CCC5(CC4)CC(N4CCN(c6ccc(N7CCC(=O)NC7=O)cc6)CC4)C5)cc3)CC2)CN1c1ccc(C#N)c(Cl)c1` [Example 28, (S)-2-Chloro-4-(8-(4-(2-(4-(4-(2,4-dioxotetrahydropyrimidin-1(2H)-yl)phenyl)piperazin-1-yl)-7-azaspiro[3.5]nonane-7-carbonyl)phenyl)-3-methyl-2,8-diazaspiro[4.5]decan-2-yl)benzonitrile], on androgen receptor (AR), the half-maximal degradation concentration (DC50) worked out at 5.8 nM and the Dmax stood at 97%. Besides, in series [1], the Vd/F stood at 66.6 L/kg, the AUC(0-t) turned out to be 315 ng·h/mL, the CL/F is 108 mL/min/kg and the half-life is 7.17 h. For the same compound, in series [1], the Cmax turned out to be 25.5 ng/mL. For the same compound, in the series on LNCaP cells, the IC50 came out at 17 nM and the Emax stood at 61%.

As to `C[C@H]1CC2(CCN(c3ccc(C(=O)N4CCC(CN5CCN(c6cc(NC7CCC(=O)NC7=O)ccc6F)CC5)CC4)cc3)CC2)CN1c1ccc(C#N)c(Cl)c1` (stereo partly drawn) [Example 23, 2-Chloro-4-((3S)-8-(4-(4-((4-(5-((2,6-dioxopiperidin-3-yl)amino)-2-fluorophenyl)piperazin-1-yl)methyl)piperidine-1-carbonyl)phenyl)-3-methyl-2,8-diazaspiro[4.5]decan-2-yl)benzonitrile], at androgen receptor (AR), the DC50 amounted to 6.1 nM and the Dmax was 96%. Also, in series [1], the Vd/F turned out to be 26.3 L/kg, the AUC(0-t) was 703 ng·h/mL, the CL/F came out at 51.2 mL/min/kg and the half-life is 5.93 h. In addition, in series [1], the Cmax is 81.6 ng/mL. Besides, in the series with LNCaP cells, the IC50 was determined as 41 nM and the Emax worked out at 76%.
